The source of these data is patent publication US20250268903A1, “RXFP1 AGONISTS” (BRISTOL-MYERS SQUIBB COMPANY, priority 2021, published 2025).

pEC50: −log10 of the molar value.

The assay has as its target T1, human RXFP1 (Homo sapiens, UniProt Q9HBX9).
T1 construct: expressed in transfected cells
T1 sequence (Q9HBX9 1-757): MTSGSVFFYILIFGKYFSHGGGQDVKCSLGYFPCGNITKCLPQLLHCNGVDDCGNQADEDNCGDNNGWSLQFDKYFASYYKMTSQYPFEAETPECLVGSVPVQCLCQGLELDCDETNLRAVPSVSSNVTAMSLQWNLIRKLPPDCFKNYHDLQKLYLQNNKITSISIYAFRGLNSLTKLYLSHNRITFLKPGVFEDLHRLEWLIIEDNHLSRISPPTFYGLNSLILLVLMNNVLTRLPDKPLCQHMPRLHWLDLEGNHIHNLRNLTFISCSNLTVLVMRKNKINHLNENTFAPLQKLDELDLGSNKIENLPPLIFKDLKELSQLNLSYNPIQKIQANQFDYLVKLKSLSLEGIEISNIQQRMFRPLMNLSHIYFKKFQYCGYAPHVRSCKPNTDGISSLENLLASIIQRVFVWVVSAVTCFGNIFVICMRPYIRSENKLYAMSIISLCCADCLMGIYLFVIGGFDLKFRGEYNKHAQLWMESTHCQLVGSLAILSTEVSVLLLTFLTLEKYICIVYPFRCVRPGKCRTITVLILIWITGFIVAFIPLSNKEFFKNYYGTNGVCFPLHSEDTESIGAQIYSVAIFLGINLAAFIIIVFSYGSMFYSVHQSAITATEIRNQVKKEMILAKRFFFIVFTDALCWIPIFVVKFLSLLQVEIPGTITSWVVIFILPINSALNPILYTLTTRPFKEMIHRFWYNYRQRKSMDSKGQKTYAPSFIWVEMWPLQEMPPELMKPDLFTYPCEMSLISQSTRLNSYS
As to the kind of experiment: hRXFP1 HEK293 cAMP assay (HTRF). As to conditions: HEK293 cells stably expressing human RXFP1, 30 min at room temperature. In kind it is cell-based. The method in brief:
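Intracellular cAMP was read by HTRF, with potency fitted to a 4-parameter logistic curve. Compound exposure (0.010 nM–50 μM final, 2% DMSO) lasted 30 min at room temperature. Cells were hRXFP1-HEK293 at 1500 per well in IBMX-containing (0.5 mM) HEPES-buffered HBSS.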
On the technique in general: Changes in cAMP serve as a functional read-out for many G protein-coupled receptors.
A word on the pEC50: it is the EC50 on a negative log10 scale, so that one unit is a factor of ten. `COc1ccc(C2CCCC(NC(=O)C3CCOCC3)C2)cc1C(=O)N[C@@H]1C2CCC(/C2=C/C(F)(F)F)[C@@H]1C(=O)Nc1ccc(F)c(C(F)(F)F)c1` (single isomer, unassigned) [Example 51] showed a negative-log EC50 (pEC50) of 5.63. As for `COc1ccc(COCC2COC2)cc1C(=O)N[C@H]1[C@@H](C(=O)Nc2ccc(F)c(C(F)(F)F)c2)[C@H]2CC[C@@H]1/C2=C\C(F)(F)F` [Example 284, (1R,2S,3R,4R,7Z)-N-[4-fluoro-3-(trifluoromethyl)phenyl]-3-(2-methoxy-5-{[(oxetan-3-yl)methoxy]methyl}benzamido)-7-(2,2,2-trifluoroethylidene) bicyclo[2.2.1] heptane-2-carboxamide], the pEC50 was 6.79. The figure for `CCOC(=O)/C(C)=C/c1ccc(OC)c(C(=O)N[C@H]2[C@@H](C(=O)Nc3ccc(F)c(C(F)(F)F)c3)[C@H]3CC[C@@H]2/C3=C\C(F)(F)F)c1` [Example 318, ethyl (2E)-3-(3-{[(1R,2R,3S,4R,7Z)-3-{[4-fluoro-3-(trifluoromethyl)phenyl]carbamoyl}-7-(2,2,2-trifluoroethylidene)bicyclo[2.2.1]heptan-2-yl]carbamoyl}-4-methoxyphenyl)-2-methylprop-2-enoate] is 5.65; for `COc1ccc(S(=O)(=O)N2CCNCC2CCO)cc1C(=O)N[C@H]1[C@@H](C(=O)Nc2ccc(F)c(C(F)(F)F)c2)[C@H]2CC[C@@H]1/C2=C\C(F)(F)F` (stereo partly drawn) [Example 216, (1R,2S,3R,4R,7Z)-N-[4-fluoro-3-(trifluoromethyl)phenyl]-3-(5-{[2-(2-hydroxyethyl)piperazin-1-yl]sulfonyl}-2-methoxybenzamido)-7-(2,2,2-trifluoroethylidene) bicyclo[2.2.1]heptane-2-carboxamide] it is 6.55. The result for `COc1cc(CN2C(=O)CNC2=O)ccc1C(=O)N[C@@H]1C2CCC(/C2=C/C2CC2)[C@@H]1C(=O)Nc1ccc(F)c(C(F)(F)F)c1` (stereo partly drawn) [Example 25, (2S,3R,7Z)-7-(cyclopropylmethyli-dene)-3-{4-[(2,5-dioxoimidazolidin-1-yl)methyl]-2-methoxybenzamido}-N-[4-fluoro-3-(trifluoromethyl)phe-nyl]bicyclo[2.2.1] heptane-2-carboxamide] reads 5.69; that for `COc1ccc(S(=O)(=O)N2CCS(=O)(=O)CC2)cc1C(=O)NC1C2CCC(/C2=C/C(F)(F)F)[C@@H]1C(=O)Nc1ccc(F)c(C(F)(F)F)c1` (stereo partly drawn) [Example 202, (2S,3R,7Z)-3-{5-[(1,1-dioxo-1λ^6-thiomorpholin-4-yl)sulfonyl]-2-methoxybenzamido}-N-[4-fluoro-3-(trifluoromethyl)phe-nyl]-7-(2,2,2-trifluoroethylidene)bi-cyclo[2.2.1]heptane-2-carboxamide], 6.73; that for `COc1ccc(C(=O)N2CCCC(CO)C2)cc1C(=O)N[C@H]1[C@@H](C(=O)Nc2ccc(F)c(C(F)(F)F)c2)[C@H]2CC[C@@H]1/C2=C\C1CC1` (stereo partly drawn) [Example 233, (1R,2S,3R,4R,7Z)-7-(cyclopropyl-methylidene)-N-[4-fluoro-3-(trifluoromethyl)phenyl]-3-[5-[3-(hydroxymethyl)piperidine-1-carbonyl]-2-methoxybenzamido} bicyclo[2.2.1] heptane-2-carboxamide], 7.18. The result for `COc1ccc(COc2ccccc2)cc1C(=O)N[C@@H]1C2CCC(/C2=C/C(F)(F)F)[C@@H]1C(=O)Nc1ccc(F)c(C(F)(F)F)c1` (stereo partly drawn) [Example 20, (2S,3R,7Z)-N-[4-fluoro-3-(trifluoromethyl)phe-nyl]-3-[2-methoxy-5-(phenoxymethyl)ben-zamido]-7-(2,2,2-trifluoroethylidene)bi-cyclo[2.2.1]heptane-2-carboxamide] reads 6.85; that for `COc1ccc(C2CCCC(O)C2)cc1C(=O)N[C@@H]1C2CCC(/C2=C/C(F)(F)F)[C@@H]1C(=O)Nc1ccc(F)c(C(F)(F)F)c1` (single isomer, unassigned) [Example 35], 6.18; that for `COc1cc(F)c(O[C@H]2CC[C@](C)(C(=O)O)CC2)cc1C(=O)N[C@@H]1C2CCC(/C2=C/C2CC2)[C@@H]1C(=O)Nc1ccc(F)c(C(F)(F)F)c1` (stereo partly drawn) [Example 375, (1R,4r)-4-(5-(((1R,2R,3S,4R,Z)-7-(cyclopropyl-methylene)-3-((4-fluoro-3-(trifluoromethyl)phenyl)carbamoyl)bicyclo[2.2.1]heptan-2-yl)carbamoyl)-2-fluoro-4-methoxyphenoxy)-1-methylcyclohexane-1-carboxylic acid], 8.89. For the compound “(1R,4R,7Z)-7-(2- cyclobutylethylidene)- N-[4-fluoro-3- (trifluoromethyl) phenyl]-3-[5-(3- hydroxy-3- methylbutyl)-2- methoxybenzamido] bicyclo[2.2.1] heptane- 2-carboxamide [Example 265]”, the pEC50 was 7.18.

For the compound `COc1ccc(COc2c(F)cccc2C(OC(=O)Nc2ccccc2)C(F)(F)F)cc1C(=O)N[C@H]1[C@@H](C(=O)Nc2ccc(F)c(C(F)(F)F)c2)[C@H]2CC[C@@H]1/C2=C\C1CC1` (stereo partly drawn) [Example 364, 1-(2-((3-(((1R,2R,3S,4R,Z)-7-(cyclopropyl-methylene)-3-((4-fluoro-3-(trifluoromethyl)phenyl)carbamoyl)bicyclo[2.2.1]heptan-2-yl)carbamoyl)-4-methoxybenzyl)oxy)-3-fluorophenyl)-2,2,2-trifluoroethyl phenylcarbamate], the pEC50 was 8.96. The figure for `COc1ccc(S(C)(=O)=O)cc1C(=O)N[C@@H]1C2CCC(C2=C(C)C)[C@@H]1C(=O)Nc1ccc(F)c(C(F)(F)F)c1` (stereo partly drawn) [Example 208, (2S,3R)-N-[4-fluoro-3-(trifluoromethyl)phenyl]-3-(5-methanesulfonyl-2-methoxybenzamido)-7-(propan-2-ylidene)bicyclo[2.2.1] heptane-2-carboxamide] is 5.59. The result for `COc1ccc(C(=O)N2C[C@H]3CNC[C@H]3C2)cc1C(=O)N[C@H]1[C@@H](C(=O)Nc2ccc(F)c(C(F)(F)F)c2)[C@H]2CC[C@@H]1/C2=C\C1CC1` [Example 249] reads 6.36; that for `COc1ccc(CN2O[C@H]3COC[C@H]3C2=O)cc1C(=O)N[C@H]1[C@@H](C(=O)Nc2ccc(F)c(C(F)(F)F)c2)[C@H]2CC[C@@H]1/C2=C\C1CC1` [Example 299, (1R,2S,3R,4R,7Z)-3-(5-{[(3aR,6aR)-3-oxo-hexahydrofuro[3,4-d][1,2]oxazol-2-yl]methyl}-2-methoxybenzamido)-7-(cyclopropylmethylidene)-N-[4-fluoro-3-(trifluoromethyl)phenyl]bicyclo[2.2.1]heptane-2-carboxamide], 6.94; that for `COc1c(F)cc(C(=O)NCC2(S(C)(=O)=O)CC2)cc1C(=O)N[C@H]1[C@@H](C(=O)Nc2ccc(F)c(C(F)(F)F)c2)[C@H]2CC[C@@H]1/C2=C\C1CC(F)(F)C1` [Example 374, N3-[(1R,2R,3S,4R,7Z)-7-[(3,3-difluorocyclobutyl)methylidene]-3-{[4-fluoro-3-(trifluoromethyl)phenyl]carbamoyl}bicyclo[2.2.1]heptan-2-yl]-5-fluoro-N1-[(1-methanesulfonyl-cyclopropyl)methyl]-4-methoxybenzene-1,3-dicarboxamide], 8.16. The result for `COc1ccc([C@H]2C[C@H](O)C2)cc1C(=O)NC1C2CCC(/C2=C/C2CC2)[C@@H]1C(=O)Nc1ccc(F)c(C(F)(F)F)c1` (stereo partly drawn) [Example 148, (2S,3R,7Z)-7-(cyclopropylmethyli-dene)-N-[4-fluoro-3-(trifluoromethyl)phe-nyl]-3-{2-methoxy-5-[(1r,3r)-3-hydroxycyclobutyl]benzamido}bicyclo [2.2.1]heptane-2-carboxamide] reads 8.22. Compound `COc1ccc(COCC2CC(O)C2)cc1C(=O)N[C@H]1[C@@H](C(=O)Nc2ccc(F)c(C(F)(F)F)c2)[C@H]2CC[C@@H]1/C2=C\C1CC1` (stereo partly drawn) [Example 291, (1R,2S,3R,4R,7Z)-7-(cyclopropyl-methylidene)-N-[4-fluoro-3-(trifluoromethyl)phenyl]-3-(5-{[(3-hydroxycyclobutyl)methoxy]methyl}-2-methoxybenzamido) bicyclo[2.2.1] heptane-2-carboxamide] showed a negative-log EC50 (pEC50) of 8.65. The compound `COc1ccc([C@H]2C[C@H](O)C2)cc1C(=O)NC1C2CCC(/C2=C/C(F)(F)F)[C@@H]1C(=O)Nc1ccc(F)c(C(F)(F)F)c1` (stereo partly drawn) [Example 145, (2S,3R,7Z)-N-[4-fluoro-3-(trifluoromethyl)phe-nyl]-3-{2-methoxy-5-[(1r,3r)-3-hydroxycyclobutyl]benzamido}-7-(2,2,2-trifluoroethylidene)bi-cyclo[2.2.1]heptane-2-carboxamide] showed a negative-log EC50 (pEC50) of 7.08.
